Columns and labels:
E. coli isolates [1] = assay: Quantification of DNA release following antibiotic exposure, filtration and ddPCR (Example 27); assay type: cell-based, Escherichia coli; parameters: dose or concentration left out as unconfirmed; details: 15 min exposure, 0.22 μm filtration, ddPCR
Description: Filtration experiments. Filtration experiments were performed using E. coli isolates exposed to 0.5 μg/mL ertapenem for 15 min. Immediately following exposure, cultures were passed through 0.22 μm, 1.5 mL cellulose acetate centrifuge tube filters (Corning Costar Spin-X, Corning, NY) by adding 50 μL of sample to the filter and centrifuging for 4 minutes at 1000 ref. DNA was extracted from both the feed and filtrate using QuickExtract DNA Extraction Solution (Lucigen, Middleton, WI, USA). Samples were diluted 10× into extraction buffer and extracted according to manufacturer instructions. The concentration of the single copy E. coli uidA gene was then quantified in the feed and filtrate extractions. The percentage of E. coli DNA in the filtrate was calculated as the filtrate concentration divided by the feed concentration. Droplet digital PCR (ddPCR) was performed using QX200 ddPCR Supermix for EvaGreen (BioRad). 10% of the final reaction volume was template. Published primers targeting the uidA gene in E. coli were used at a final concentration of 500 nM. Cycling conditions consisted of 5.0 min at 95° C., followed by 40 cycles of 95° C. for 30 sec, 60° C. for 30 sec, and 72° C. for 30 sec., with final dye stabilization steps of 4° C. for 5.0 min followed by 90° C. for 5.0 min.
To investigate the mechanism of pol-aAST, experiments were performed to separate free NAs from NAs contained within structurally intact cells or associated with cell debris. Susceptible and resistant clinical isolates were exposed to β-lactams for 15 min, then filtered through […] filters to remove cells from free NAs. NAs in the sample and eluate were then quantified using droplet digital PCR (ddPCR).

Escherichia coli = assay: Minimum inhibitory concentrations (MICs) of Enterobacteriaceae clinical isolates; assay type: cell-based
Excerpt: (§1) Clinical isolates referenced, minimum inhibitory concentrations (MICs), and categorical susceptibility based on CLSI breakpoints The below list of organisms are examples of clinically-relevant susceptible and resistant Enterobacteriaceae clinical isolates. Minimum inhibitory concentrations (MICs) are provided in μg/mL for the antibiotics listed.
(§2) Isolates, growth conditions, and antibiotic exposure conditions. 25 de-identified clinical isolates were obtained from the UCLA Clinical Microbiology Laboratory (CML) and the CDC's Enterobacteriaceae Carbapenem Breakpoint panel. In the case of isolates obtained from the UCLA CML, MICs were determined as described previously. Genotypic testing of the two Ec and two Kp isolates selected for their lack of known β-lactamase genes was performed by UCLA CML using a previously published assay and separately at the Keck School of Medicine of USC using the FDA-approved Cepheid Xpert® Carba-R test. Whole genome sequencing of the single Ebs isolate selected for its lack of known resistance genes was performed by the CDC [3]. All isolates were stored as glycerol stocks at −80° C. Glycerol stocks were streaked onto Trypticase Soy Agar with 5% sheep's blood (Becton Dickinson, Franklin Lakes, NJ, USA) and grown overnight at 37° C. Prior to experiments, a small clump of cells was resuspended in 2 mL Brain Heart Infusion Broth (BHI, Becton Dickinson) at 37° C.+5% CO2 with 500 rpm shaking for 2 to 4 h until visibly turbid. OD600 of the cultures was then measured, and working cultures prepared at an OD600 of 0.01-0.07 and grown for 50-145 min at 37° C.+5% CO2 with 500 rpm. Working cultures were then diluted 10× into control and treated aliquots for antibiotic exposure. For validation experiments, antibiotic exposure was performed in 100 μL volumes consisting of 80 μL Mueller Hinton II Broth (Becton Dickinson), 5 μL nuclease-free H2O (NF—H2O), 5 μL 20× antibiotic stock solution, and 10 μL of working culture. In control aliquots, antibiotic stock solution was replaced with NF—H2O. For filtration experiments, antibiotic exposure was performed in 100 μL volumes consisting of 65 μL Mueller Hinton II Broth (Becton Dickinson), 21 μL nuclease-free H2O (NF—H2O), 4 μL 25× antibiotic stock solution, and 10 μL of working culture. In control aliquots, antibiotic stock solution was replaced with NF—H2O.

Klebsiella pneumoniae = assay: as above; assay type: cell-based
Excerpt: as §1, §2

E. coli isolates [2] = assay: pol-aAST, comparison of LAMP and qPCR amplification (Example 26); assay type: cell-based, Escherichia coli; details: 0.5 μg/mL ertapenem for 15 min
Description: Comparison of amplification methods. In order to compare amplification using LAMP and PCR, E. coli isolates were exposed to 0.5 μg/mL ertapenem for 15 min. Samples were then transferred directly into either PCR or LAMP mix on ice. Amplification was started immediately. Quantitative PCR (qPCR) was performed on a Roche LightCycler 96 using SsoFast EvaGreen Supermix (BioRad, Hercules, CA, USA). 10 μL reactions were used. 10% of the final reaction volume was template. Published primers were used at a final concentration of 500 nM. Cycling conditions consisted of 3.0 min at 95° C., followed by 35 cycles of 95° C. for 10 sec, 60° C. for 10 sec, and 72° C. for 15 sec. Fluorescence was measured using the SYBR Green channel after each 72° C. extension step. LAMP was performed on a BioRad CFX96 using the following conditions: 10 μL reaction volume containing 1× Isothermal Reaction Buffer II (NEB), 5 mM MgSO4 (NEB), 1.4 mM dNTPs (NEB), 320 U/mL Bst 3.0 (NEB), and 2 μM Syto-9 (Thermo Fisher). 10% of the reaction volume was template. Primer sequences and concentrations have been described previously. Cycling conditions consisted of 2.0 min at 12° C. (while lid was heating), followed by 120 cycles of 70° C. for 10 sec. Fluorescence was measured using the SYBR Green channel every 10 sec (after each cycle).
To test this, pol-aAST is performed in this example using LAMP, and quantitative PCR (qPCR) (FIG. 48). […]

Neisseria gonorrhoeae = assay: Minimum inhibitory concentrations (MICs) of Neisseria gonorrhoeae clinical isolates; assay type: cell-based
Description: Isolates and agar-dilution MIC testing. Isolates were provided by the University of Washington Neisseria Reference Laboratory and the Centers for Disease Control (CDC) Antibiotic Resistance Isolate Bank Neisseria gonorrhoeae panel (SINuca-Table). MICs of the CDC AR Isolate Bank are reported by the CDC [10], and MIC of all other isolates were determined by agar dilution according to the Clinical and Laboratory Standards Institute (CLSI) guidelines.

Ng isolates = assay: Percentage of cell lysis due to enhancer alone (Example 33); assay type: cell-based, Neisseria gonorrhoeae; details: Ng clinical isolates (12 for BAC); no antibiotic
Description: Enhancer use. Working cultures of Ng isolates were prepared as described in “Ng culture preparation.” Initial exposure was performed by incubating 100 μL control and treated samples at 37° C. in PCR tube strips on a BioRad C1000 Thermal Cycler. Treated samples consisted of 75 μL MHB, 5 μL NaHCO3 (100 mM), 5 μL DNase I (2 U/μL), 5 μL PEN or CRO (20 μg/mL), and […] working Ng isolate culture. ABX were replaced with NF—H2O in control samples. After 15 min of incubation, samples were vortexed and quick-spun, and aliquots of all samples were transferred to the enhancement step as described below. After the enhancement step, 5 or 10 μL of all samples were extracted by diluting 10× in QuickExtract DNA Extraction Solution (Lucigen) and heating for 6 min at 65° C. followed by 4 min at 98° C. on a BioRad C1000 Thermal Cycler. All sample handling following ABX exposure was performed using a multichannel pipette; qPCR and calculation of % accessibility was performed as described above.
Osmotic and autolytic enhancing steps were performed in 100 μL volumes. The osmotic enhancing step consisted of 89.75 μL NF—H2O, 4.75 μL DNase I (2 U/μL), 0.5 μL CaCl (100 mM, 0.2-μM filtered), and 5 μL initial exposure samples. […]

C[C@@H](O)[C@H]1C(=O)N2C(C(=O)O)=C(S[C@@H]3CN[C@H](C(=O)Nc4cccc(C(=O)O)c4)C3)[C@H](C)[C@H]12 [ETP, ertapenem]
average percentage of DNA released from susceptible isolates (E. coli isolates [1]): 15%
Antibiotic MICs (Escherichia coli; isolate Ec_1): <=.5 μg/mL
Antibiotic MICs (Escherichia coli; isolate Ec_2): <=.5 μg/mL
Antibiotic MICs (Escherichia coli; isolate Ec_3): <=.5 μg/mL
Antibiotic MICs (Escherichia coli; isolate Ec_4): <=.5 μg/mL
Antibiotic MICs (Escherichia coli; isolate Ec_38): >4 µg/mL
Antibiotic MICs (Escherichia coli; isolate Ec_39): 2 µg/mL
Antibiotic MICs (Escherichia coli; isolate Ec_40): 2 µg/mL
Antibiotic MICs (Escherichia coli; isolate Ec_41): 2 µg/mL
Antibiotic MICs (Klebsiella pneumoniae; isolate Kp_1): <=.5 μg/mL
Antibiotic MICs (Klebsiella pneumoniae; isolate Kp_2): <=.5 μg/mL
Antibiotic MICs (Klebsiella pneumoniae; isolate Kp_7): >8 µg/mL
Antibiotic MICs (Klebsiella pneumoniae; isolate Kp_8): >8 µg/mL
time-to-positive difference (TTPD) between control and treated aliquots, LAMP (E. coli isolates [2]; susceptible E. coli isolate): 1.02 min
difference in Cq between control and treated samples, qPCR (E. coli isolates [2]; two susceptible and two resistant E. coli isolates): none of which showed a statistically significant difference in Cq

C=CC1=C(C(=O)O)N2C(=O)[C@@H](NC(=O)/C(=N\OCC(=O)O)c3csc(N)n3)[C@H]2SC1 [CFM, cefixime]
Antibiotic MICs (Neisseria gonorrhoeae; isolate ng_1): ≤0.015 µg/mL
Antibiotic MICs (Neisseria gonorrhoeae; isolate ng_2): ≤0.015 µg/mL
Antibiotic MICs (Neisseria gonorrhoeae; isolate ng_3): ≤0.015 µg/mL
Antibiotic MICs (Neisseria gonorrhoeae; isolate ng_4): 0.060 µg/mL
Antibiotic MICs (Neisseria gonorrhoeae; isolate ng_5): 0.030 µg/mL
Antibiotic MICs (Neisseria gonorrhoeae; isolate ng_6): 0.015 µg/mL
Antibiotic MICs (Neisseria gonorrhoeae; isolate ng_12): 0.030 µg/mL
Antibiotic MICs (Neisseria gonorrhoeae; isolate ng_15): ≤0.015 µg/mL
Antibiotic MICs (Neisseria gonorrhoeae; isolate ng_16): ≤0.015 µg/mL
Antibiotic MICs (Neisseria gonorrhoeae; isolate ng_17): ≤0.015 µg/mL
Antibiotic MICs (Neisseria gonorrhoeae; isolate ng_18): 0.060 µg/mL
Antibiotic MICs (Neisseria gonorrhoeae; isolate ng_19): 0.030 µg/mL
Antibiotic MICs (Neisseria gonorrhoeae; isolate ng_20): ≤0.015 µg/mL
Antibiotic MICs (Neisseria gonorrhoeae; isolate ng_30): 1.000 µg/mL
Antibiotic MICs (Neisseria gonorrhoeae; isolate ng_41): 0.250 µg/mL
Antibiotic MICs (Neisseria gonorrhoeae; isolate ng_44): ≤0.015 µg/mL

benzalkonium chloride [BAC]
average percentage lysis by 5-min incubation with the enhancer alone (Ng isolates): 91.6%

CC1(C)S[C@@H]2[C@H](NC(=O)[C@H](N)c3ccccc3)C(=O)N2[C@H]1C(=O)O [AMP, ampicillin]
Antibiotic MICs (Escherichia coli; isolate Ec_1): 4 µg/mL
Antibiotic MICs (Escherichia coli; isolate Ec_2): <=2 μg/mL
Antibiotic MICs (Escherichia coli; isolate Ec_3): <=2 μg/mL
Antibiotic MICs (Escherichia coli; isolate Ec_4): <=2 μg/mL
Antibiotic MICs (Escherichia coli; isolate Ec_39): >=32 μg/mL
Antibiotic MICs (Escherichia coli; isolate Ec_40): >=32 μg/mL
Antibiotic MICs (Klebsiella pneumoniae; isolate Kp_7): >32 µg/mL
Antibiotic MICs (Klebsiella pneumoniae; isolate Kp_8): >32 µg/mL

C[C@@H](O)[C@H]1C(=O)N2C(C(=O)O)=C(S[C@@H]3CN[C@H](C(=O)N(C)C)C3)[C@H](C)[C@H]12 [meropenem]
average percentage of DNA released from susceptible isolates (E. coli isolates [1]): 21%

Reference: patent US12448655B2, “Antibiotic susceptibility of microorganisms and related methods and systems” (CALIFORNIA INSTITUTE OF TECHNOLOGY, priority 2017, dated 2025)
